Tests used:
Assay type in all cases: in vivo, C57BL/6J mice
IPF mice [1] = assay: Transcription levels of fibrosis factors in lung tissue of IPF mice (qPCR); settings: BLM IPF mice, 30 mg/kg i.p., 3 weeks
Description: (§1) Male C57BL/6J mice (aged 8 weeks and weighing 25-30 g) were selected and housed in an SPF grade laboratory animal room, and the model of IPF was constructed by one-time intratracheal instillation of bleomycin (BLM); the mice were divided into four groups (n=9): • 1) PBS group+vehicle group: PBS (the volume consistent with the subsequent BLM infusion volume) was given by tracheal instillation; RK-20449 solvent PBS was injected intraperitoneally; • 2) PBS+RK-20449 group: intratracheal instillation of PBS (volume consistent with subsequent BLM infusion volume); intraperitoneal injection of RK-20449 (30 mg/kg, once a day, 6 d a week, for 3 weeks); • 3) BLM+vehicle group: BLM solution (2 U/kg) was given tracheal infusion; RK-20449 solvent PBS was injected intraperitoneally; and • 4) BLM+RK-20449 group: BLM solution (2 U/kg) was given tracheal infusion, and RK-20449 (30 mg/kg, once a day, 6 d a week, for 3 weeks) was injected intraperitoneally.
(§2) All mice were sacrificed after 21 d of administration, and the corresponding samples were collected for detection.
(§3) Lung tissue RNA of all mice was extracted; cDNA was obtained by using a reverse transcription kit (KR103, Tiangen Biotechnology, Beijing, China); qPCR was conducted by using a SYBR Green I Q-PCR Kit (TransGen Biotech, Beijing China); data collection and analysis were conducted by Bio-Rad IQ5 system.

Hck = Hck transcription level in lung tissue of IPF mice (qPCR); settings: BLM (2 U/kg) IPF mice; RK-20449 30 mg/kg i.p. once a day, 6 d a week, 3 weeks; FIG. 1
Description: as §1, §2, §3

IPF mice [2] = assay: HYP content and degree of lesions in lung tissue of IPF mice; settings: BLM IPF mice, 30 mg/kg i.p., 3 weeks
Description: as §1, §2
30 mg of mouse lung tissue was detected using an HYP kit (NBP2-59747, Novus Biologicals, Littleton, CO, USA).

IPF mice [3] = assay: Transcription levels of inflammatory factors in lung tissue of IPF mice (qPCR); settings: BLM IPF mice, 30 mg/kg i.p., 3 weeks
Description: as §1, §2, §3

IPF mice [4] = assay: Body weight and survival rate of IPF mice; settings: BLM IPF mice, 30 mg/kg i.p., 3 weeks
Description: as §1, §2
The mice in each group were weighed, and the death of the mice was observed and counted.

IPF mice [5] = assay: ELISA of inflammatory factors in BALF of IPF mice; settings: BLM IPF mice, 30 mg/kg i.p., 3 weeks
Description: as §1, §2
Concentrations of inflammatory factors IL-1β and IL-6 in mouse BALF were detected by using ELISA kits.

IPF mice [6] = assay: Pulmonary function test in IPF mice; settings: BLM IPF mice, 30 mg/kg i.p., 3 weeks
Description: as §1, §2
Anesthetized mice were fixed on an experimental table, and mouse lung function was detected by a pulmonary function testing system (DSI Buxco, USA). Before experiment, the mouse was anesthetized by intraperitoneal injection of 0.4 mL/100 g 2% pentobarbital, tracheotomy was performed, a trachea cannula was inserted, and a ventilator was connected. Next, FRC, PV, FV, and RC were automatically tested by a PET system. Indicators closely related to lung function changes in pulmonary fibrosis for statistical analysis, including lung volume indicators such as IC, and pulmonary ventilation function tests such as RI, Cdyn, and Cchord.

## CN1CCN(C2CCC(n3cc(-c4ccc(Oc5ccccc5)cc4)c4c(N)ncnc43)CC2)CC1 (stereo not shown) [RK-20449]
IPF mice [1]; FIG. 4A
  transcription level of Col-I: decreased
IPF mice [1]; FIG. 4B
  transcription level of Fn-1: decreased
Hck
  transcription level of Hck in the lung tissue: effectively inhibit
IPF mice [2]
  degree of lesions: alleviated
IPF mice [2]; lung tissue, FIG. 4C
  hydroxyproline content in lung tissue: decreased
IPF mice [3]; FIG. 3A
  transcription level of Il-1β: decreased
IPF mice [3]; FIG. 3B
  transcription level of Il-6: decreased
IPF mice [3]; FIG. 3C
  transcription level of Tnf-α: decreased
IPF mice [4]; FIG. 2A
  weight loss of IPF mice: alleviated
IPF mice [4]; FIG. 2B
  survival rate: increased to a certain extent
IPF mice [5]; FIG. 3D
  concentration of IL-1β in the alveolar lavage fluid: decreased
IPF mice [5]; FIG. 3E
  concentration of IL-6 in the alveolar lavage fluid: decreased
IPF mice [6]; FIG. 2C
  lung function: inspiratory resistance (RI): improved significantly
IPF mice [6]; FIG. 2D
  lung function: dynamic compliance (Cdyn): improved significantly
IPF mice [6]; FIG. 2E
  lung function: quasi-static compliance (Cchord): improved significantly
IPF mice [6]; FIG. 2F
  lung function: inspiratory capacity (IC): improved significantly

From patent US20250228856A1, “USE OF HEMATOPOIETIC CELL KINASE (HCK) INHIBITOR IN PREPARATION OF DRUG FOR TREATING PULMONARY FIBROSIS” (Institute of Basic Medical Sciences, CAMS, priority 2024, published 2025)
